Experimental data: patent publication US12172983B2, “EGFR inhibitors” (Blueprint Medicines Corporation, priority 2019, dated 2024)

What was measured:
[1] = test system: phosphorylation of EGFR (Tyr1068) in NCI-H1975 cell line that harbors the EGFR L858R T790M mutations; test: NCI-H1975 pEGFR AlphaLISA assay; type: cell-based; conditions: Homo sapiens, NCI-H1975, inhibition of phosphorylation of mutant EGFR in NCI-H1975 cells; 4-5 hours incubation; read-out: Ext pEGFR H1975
Method in brief: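 Phospho-EGFR Tyr1068 AlphaLISA readout: lysates taken from compound-treated H1975 cells (L858R T790M EGFR) after a 4-5 h exposure at 37 °C. Cells had adhered overnight beforehand. IC50 derived by plotting % pEGFR inhibition against log compound concentration.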

EGFR (L858R T790M C797S) = biological target: T1, EGFR (L858R T790M C797S) (Homo sapiens, UniProt P00533, C797S/L858R/T790M); test: Biochemical EGFR inhibition assay (Caliper mobility shift), EGFR LRTMCS mutant; conditions: inhibitory activity against EGFR LRTMCS mutant; apparent IC50; read-out: Ext Enz LRTMCS
T1 construct: purchased SignalChem E10-122VG
Method in brief: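 Each enzyme was allowed to phosphorylate 10–20% of its peptide at 25° C. before EDTA (35 mM) quench. Separated substrate and product peaks were measured by mobility shift, giving apparent IC50 values.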

T1 sequence (P00533 25-1210 T790M/C797S/L858R): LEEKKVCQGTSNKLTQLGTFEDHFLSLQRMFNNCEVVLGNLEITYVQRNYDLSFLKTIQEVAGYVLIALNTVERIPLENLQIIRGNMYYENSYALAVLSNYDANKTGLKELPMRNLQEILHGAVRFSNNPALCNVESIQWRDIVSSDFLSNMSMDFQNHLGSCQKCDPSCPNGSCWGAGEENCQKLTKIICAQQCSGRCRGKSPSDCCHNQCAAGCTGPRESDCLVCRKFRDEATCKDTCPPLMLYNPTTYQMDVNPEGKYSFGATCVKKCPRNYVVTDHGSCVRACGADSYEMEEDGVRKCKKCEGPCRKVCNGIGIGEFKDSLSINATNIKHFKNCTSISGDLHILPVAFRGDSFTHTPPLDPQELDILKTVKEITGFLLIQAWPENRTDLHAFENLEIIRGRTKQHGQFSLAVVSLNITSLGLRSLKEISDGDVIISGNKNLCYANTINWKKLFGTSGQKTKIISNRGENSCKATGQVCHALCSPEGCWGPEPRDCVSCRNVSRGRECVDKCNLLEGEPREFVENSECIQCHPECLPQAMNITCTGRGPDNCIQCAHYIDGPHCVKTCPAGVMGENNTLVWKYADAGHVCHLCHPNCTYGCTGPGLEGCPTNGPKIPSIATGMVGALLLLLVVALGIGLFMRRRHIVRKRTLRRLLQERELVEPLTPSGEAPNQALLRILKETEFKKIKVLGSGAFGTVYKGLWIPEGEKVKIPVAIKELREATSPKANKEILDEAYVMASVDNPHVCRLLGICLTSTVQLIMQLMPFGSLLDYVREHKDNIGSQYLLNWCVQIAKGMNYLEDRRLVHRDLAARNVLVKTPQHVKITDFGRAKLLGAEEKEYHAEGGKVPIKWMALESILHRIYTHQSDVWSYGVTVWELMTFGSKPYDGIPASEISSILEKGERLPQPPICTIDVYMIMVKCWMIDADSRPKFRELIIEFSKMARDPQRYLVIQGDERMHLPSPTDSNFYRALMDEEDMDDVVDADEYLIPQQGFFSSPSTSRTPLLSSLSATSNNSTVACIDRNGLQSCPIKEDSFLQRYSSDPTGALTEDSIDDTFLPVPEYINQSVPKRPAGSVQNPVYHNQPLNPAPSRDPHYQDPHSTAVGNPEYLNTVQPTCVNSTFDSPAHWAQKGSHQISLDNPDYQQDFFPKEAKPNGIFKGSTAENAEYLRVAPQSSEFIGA

IC50 [1]	IC50 (EGFR (L858R T790M C797S))	Structure (SMILES)
≤ 10 nM	≤ 15 nM	CC(C)c1ccc(N2C[C@H](CS(C)(=O)=O)[C@H]2C)c2cnc(Nc3ccnc(N4CC[C@H](N)C(F)(F)C4)n3)cc12 (single isomer, unassigned) [Compound 151, N-{2-[(4S)-4-amino-3,3-difluoropiperidin-1-yl]pyrimidin-4-yl}-8-[(2R,3S)-3-(methanesulfonylmethyl)-2-methylazetidin-1-yl]-5-(propan-2-yl)isoquinolin-3-amine or N-{2-[(4R)-4-amino-3,3-difluoropiperidin-1-yl]pyrimidin-4-yl}-8-[(2R,3S)-3-(methanesulfonylmethyl)-2-methylazetidin-1-yl]-5-(propan-2-yl)isoquinolin-3-amine]
≤ 10 nM	15.1 to 20 nM	CC(C)c1ncc(N2C[C@H](CS(C)(=O)=O)[C@H]2C)c2cnc(Nc3ccnc(N4CC[C@H](OC5CC5)[C@H](F)C4)n3)cc12 [Compound 224, N-{2-[(3R,4S)-4-cyclopropoxy-3-fluoropiperidin-1-yl]pyrimidin-4-yl}-8-[(2R,3S)-3-(methanesulfonylmethyl)-2-methylazetidin-1-yl]-5-(propan-2-yl)-2,6-naphthyridin-3-amine]
≤ 10 nM	≤ 15 nM	CO[C@@H]1CCN(c2nccc(Nc3cc4c(C(C)C)ncc(N5CC(CS(C)(=O)=O)C5)c4cn3)n2)C[C@]1(C)F [Compound 144, N-{2-[(3S,4R)-3-fluoro-4-methoxy-3-methylpiperidin-1-yl]pyrimidin-4-yl}-8-[3-(methanesulfonylmethyl)azetidin-1-yl]-5-(propan-2-yl)-2,6-naphthyridin-3-amine]

Further lines, the compound ahead of its results:

Structure (SMILES)	IC50 [1]	IC50 (EGFR (L858R T790M C797S))
CC(C)c1ccc(N2C[C@H](CS(C)(=O)=O)[C@H]2C)c2cnc(Nc3ccnc(N4CC[C@H](O)C[C@H]4C)n3)cc12 (single isomer, unassigned) [Compound 49, (2R,4S)-1-[4-({8-[(2R,3S)-3-(methanesulfonylmethyl)-2-methylazetidin-1-yl]-5-(propan-2-yl)isoquinolin-3-yl}amino)pyrimidin-2-yl]-2-methylpiperidin-4-ol or (2S,4R)-1-[4-({8-[(2R,3S)-3-(methanesulfonylmethyl)-2-methylazetidin-1-yl]-5-(propan-2-yl)isoquinolin-3-yl}amino)pyrimidin-2-yl]-2-methylpiperidin-4-ol]	≤ 10 nM	≤ 15 nM
CCS(=O)(=O)CC1CN(c2ccc(C)c3cc(Nc4ccnc(N5C[C@@H](F)[C@@H](O)C(C)(C)C5)n4)ncc23)C1 (single isomer, unassigned) [Compound 60, (4S,5R)-1-{4-[(8-{3-[(ethanesulfonyl)methyl]azetidin-1-yl}-5-methylisoquinolin-3-yl)amino]pyrimidin-2-yl}-5-fluoro-3,3-dimethylpiperidin-4-ol or (4R,5S)-1-{4-[(8-{3-[(ethanesulfonyl)methyl]azetidin-1-yl}-5-methylisoquinolin-3-yl)amino]pyrimidin-2-yl}-5-fluoro-3,3-dimethylpiperidin-4-ol]	20.1 to 30 nM	≤ 15 nM
CC(C)c1ccc(N2CC(CS(=O)(=O)C3CN(C)C3)C2)c2cnc(Nc3ccnc(N4CC[C@@H](O)[C@@](C)(F)C4)n3)cc12 (single isomer, unassigned) [Compound 238]	≤ 10 nM	≤ 15 nM
CCS(=O)(=O)C[C@H]1CN(c2cccc3cc(Nc4ccnc(N5C[C@@H](F)[C@@H](O)C(C)(C)C5)n4)ncc23)[C@@H]1C (single isomer, unassigned) [Compound 66, (4S,5R)-1-[4-({8-[(2R,3S)-3-[(ethanesulfonyl)methyl]-2-methylazetidin-1-yl]isoquinolin-3-yl}amino)pyrimidin-2-yl]-5-fluoro-3,3-dimethylpiperidin-4-ol or (4R,5S)-1-[4-({8-[(2R,3S)-3-[(ethanesulfonyl)methyl]-2-methylazetidin-1-yl]isoquinolin-3-yl}amino)pyrimidin-2-yl]-5-fluoro-3,3-dimethylpiperidin-4-ol]	≤ 10 nM	≤ 15 nM
